Assay type in all cases: functional, organism-based
One experiment relates to Fusarium verticillioides. Briefly: Fungicidal activity against Fusarium verticillioides assessed as inhibition of mycelial growth.
The test system of experiment [1] is Fusarium graminearum. Briefly: Fungicidal activity against compound-sensitive Fusarium graminearum isolate.
In a further experiment the test system is Sclerotinia sclerotiorum. Briefly: Fungicidal activity against Sclerotinia sclerotiorum assessed as inhibition of mycelial growth.
The next experiment relates to Pyricularia grisea. Briefly: Fungicidal activity against Magnaporthe grisea assessed as inhibition of mycelial growth.
In experiment [2] the test system is Fusarium graminearum. Briefly: Fungicidal activity against Wind-type carbendazim-sensitive Fusarium graminearum isolate.
The subject of the next experiment is Blumeria graminis. Briefly: Fungicidal activity against Blumeria graminis infested wheat plant in greenhouse assessed as reduction in powdery mildew formation measured after 10 days. The conditions noted are these: 240 h.
The subject of a further experiment is Colletotrichum truncatum. Briefly: Fungicidal activity against Colletotrichum capsici assessed as inhibition of mycelial growth.
For the next experiment, the system named is Fusarium oxysporum. Briefly: Fungicidal activity against Fusarium oxysporum assessed as inhibition of mycelial growth.
In another experiment the test system is Dothiorella gregaria. Briefly: Fungicidal activity against Dothiorella gregaria assessed as inhibition of mycelial growth.
The subject of the next experiment is Phytophthora capsici. Briefly: Fungicidal activity against Phytophthora capsici assessed as inhibition of mycelial growth.
In experiment [3] the test system is Pseudoperonospora cubensis. Briefly: Fungicidal activity against Pseudoperonospora cubensis zoosporangia isolate obtained from downy mildew diseased cucumber plant assessed as reduction in mildew development measured after 7 to 10 days.
The next experiment concerns Botrytis cinerea. Briefly: Fungicidal activity against Botryotinia fuckeliana assessed as inhibition of mycelial growth.
A further experiment relates to Alternaria solani. Briefly: Fungicidal activity against Alternaria solani assessed as inhibition of mycelial growth.

The results in this text go back to ChEMBL document CHEMBL3044797 (Crop Prot, 2008).

Converted amounts (≈) assume the structure as drawn.

Broadly, the EC50 is the concentration at which the effect is half-maximal. Consider `CCOC(=O)/C(C#N)=C(/N)c1ccccc1`, for which the EC50 with Fusarium verticillioides was 0.459 µg/mL (≈ 2.12 µM); in the experiment with Fusarium graminearum [1], 0.141 µg/mL (≈ 0.652 µM); in the experiment on Sclerotinia sclerotiorum, 72.1 µg/mL (≈ 333 µM); with Pyricularia grisea it was 77.1 µg/mL (≈ 356 µM); in the experiment on Fusarium graminearum [2] it was 0.108 µg/mL (≈ 0.499 µM); in the experiment with Blumeria graminis it was greater than 1000 µg/mL. In addition, the EC50 in the experiment with Colletotrichum truncatum was determined as 28.2 µg/mL (≈ 130 µM); in the experiment with Fusarium oxysporum, 3.56 µg/mL (≈ 16.5 µM); in the experiment with Dothiorella gregaria it was 39.7 µg/mL (≈ 184 µM); in the experiment with Phytophthora capsici it was 111 µg/mL (≈ 515 µM); in [3], 12.7 µg/mL (≈ 58.9 µM); in the experiment on Botrytis cinerea it was 72.2 µg/mL (≈ 334 µM). In addition, the EC50 with Alternaria solani was determined as 133 µg/mL (≈ 616 µM).
